Reference: patent publication US20250129104A1, “7H-PYRROLO[2,3-D]PYRIMIDINES AND PREPARATION AND USES THEREOF” (BioSplice Therapeutics, Inc., priority 2021, published 2025)

Tests used:
[1] = system: Tau phosphorylation at Thr212 (pThr212); experiment: tau phosphorylation assay: phosphoTau (Thr212) AlphaLISA in HEK293T cells transfected with DYRK1A and MAPT; assay type: cell-based; details: HEK-293T; HEK293T cells transfected with human DYRK1A and MAPT; 18-24 h compound treatment; read-out: pTau (Thr212) EC50
Description: Representative compounds were screened using the assay procedure for tau phosphorylation activity described below.
HEK293T cells (ATCC, CRL3216) cultured in DMEM (Thermo Fisher Scientific, 10566024) supplemented with 10% FBS (Corning, 35-011-CV) and Penicillin/Streptomycin (Thermo Fisher Scientific, 15140163) were seeded in a 75 cm^2 flask at 8.1×10^6 cells/flask. The HEK293T cells were then transiently transfected with 5 μg DYRK1A (NM_001396) human untagged clone (OriGene, SC314641) and 2.5 μg MAPT (441 a.a. Tau gene) (NM_005910) human untagged clone (OriGene, TP313312) using Lipofectamine 3000 (Thermo Fisher Scientific, L30000015) and incubated for 20-30 hours in a humidified incubator at 37° C. and 5% CO2. Post-incubation, HEK293T cells transfected with the DYRK1A and MAPT expression vectors were harvested and seeded in BioCoat poly-D lysine coated 96-well plates (Corning, 354461) at 3×10^4 cells/well.
The above synthesized compounds were screened using the cell assay procedure to assess decreased Tau phosphorylation at Thr212 (pThr212) described below.
Each compound was dissolved in DMSO (Sigma-Aldrich, D8418-100 mL) as a 10 mM stock. 10 mM stocks were serially diluted 1:3, 10-point dose-response curve and added to the cells with a final concentration ranging from 20 μM to 1.1 nM. Cell were treated with compounds in duplicate and incubated for 18-24 hours in a humidified incubator at 37° C. and 5% CO2.
Following the overnight compound treatment, cells were lysed with 1× Alpha Surefire Ultra Lysis Buffer (Perkin Elmer, ALSU-LB-100ML) complemented with 1× Halt Phosphatase Inhibitor Cocktail (Thermo Fisher Scientific, 78427) and 1× Halt Protease Inhibitor Cocktail (Thermo Fisher Scientific, 78438). Lysates were spun down at 12,000 g for 10 min to remove any cellular debris and 5 μL of lysates were dispensed into a 384-well Opti-Plate (Perkin Elmer, 6007290) for the measurement of Tau phosphorylation in the phosphoTau (Thr212) AlphaLISA assay. Donor antibody, biotinylated HT7Tau (Thermo Fisher Scientific, MN1000B), and acceptor antibody, pThr212Tau (Thermo Fisher Scientific, 44740G) were both added to the cell lysates at a final concentration of 3 nM and incubated for 1 hour at room temperature. Following incubation of the lysates with the donor and acceptor antibodies, anti-rabbit IgG (Fc specific) AlphaLISA acceptor beads (Perkin Elmer, AL104C) were added at a 10 μg/mL final concentration and incubated for 1 hour at room temperature protected from light. Lastly, AlphaScreen streptavidin donor beads (PerkinElmer, 6760002) were added at 40 μg/mL final concentration and incubated for 1 hour at room temperature protected from light. Plates were read at […], and Em=615 nm on the EnVision Multilabel Plate Reader (Perkin Elmer). PhosphoTau (Thr212) AlphaLISA signal was used to plot, draw the curve fitting, and determine each compound's EC50 in Prism (GraphPad).

[2] = molecular target: recombinant DYRK1A kinase (Homo sapiens (Human), UniProt Q13627); experiment: DYRK1A kinase assay (Ser/Thr 18 peptide Z-lyte FRET assay); assay type: biochemical; details: DYRK1A kinase activity; 15 μM ATP, 1 h room temperature; method text calls the value IC50
Outline: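 Recombinant human DYRK1A (0.25 μg/mL) with 15 μM ATP and 4 μM Ser/Thr 18 peptide, 1 h at room temperature with compound (11-point, 1:3, 10 μM top, duplicate). Z-lyte development 1 h, then coumarin/fluorescein FRET emission ratio converted to % phosphorylation; IC50 by non-linear regression.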

Row | EC50 [1] [nM] | EC50 [2] [nM] | Molecule
1 | 283 | 18.6 | CC(F)(F)CNc1ncc2c(-c3ccc4nccn4n3)c[nH]c2n1 [Compound 910, N-(2,2-Difluoropropyl)-5-(imidazo[1,2-b]pyridazin-6-yl)-7H-pyrrolo[2,3-d]pyrimidin-2-amine]
2 | 116 | 18.1 | CN1CCC(Nc2ncc3c(-c4ccn5ncc(C(=O)N6CCCCC6)c5c4)c[nH]c3n2)CC1 [Compound 1233, (5-(2-((1-Methylpiperidin-4-yl)amino)-7H-pyrrolo[2,3-d]pyrimidin-5-yl)pyrazolo[1,5-a]pyridin-3-yl)(piperidin-1-yl)methanone]
3 | 30 | 4 | CC1(CNc2ncc3c(-c4ccc5nccn5n4)c[nH]c3n2)CC1 [Compound 919, 5-(Imidazo[1,2-b]pyridazin-6-yl)-N-((1-methylcyclopropyl)methyl)-7H-pyrrolo[2,3-d]pyrimidin-2-amine]
4 | 228 | 6.4 | C[C@H](Nc1ncc2c(-c3ccc4nccn4n3)c[nH]c2n1)C(F)(F)F [Compound 913, (S)-5-(Imidazo[1,2-b]pyridazin-6-yl)-N-(1,1,1-trifluoropropan-2-yl)-7H-pyrrolo[2,3-d]pyrimidin-2-amine]
5 | 265 | 32.6 | FC1(CNc2ncc3c(-c4ccc5ncnn5c4)c[nH]c3n2)CC1 [Compound 739, 5-([1,2,4]Triazolo[1,5-a]pyridin-6-yl)-N-((1-fluorocyclopropyl)methyl)-7H-pyrrolo[2,3-d]pyrimidin-2-amine]
6 | 199 | 8.6 | CC(C)(F)CNc1ncc2c(-c3ccc4ncnn4c3)c[nH]c2n1 [Compound 731, 5-([1,2,4]Triazolo[1,5-a]pyridin-6-yl)-N-(2-fluoro-2-methylpropyl)-7H-pyrrolo[2,3-d]pyrimidin-2-amine]
7 | 7 | 385 | c1cc2cc(-c3c[nH]c4nc(NC5CC6(COC6)C5)ncc34)ccn2n1 [Compound 1141, 5-(Pyrazolo[1,5-a]pyridin-5-yl)-N-(2-oxaspiro[3.3]heptan-6-yl)-7H-pyrrolo [2,3-d]pyrimidin-2-amine]
8 | – | 103 | 5-(1-(2,2-Difluoroethyl)-1H-benzo[d][1,2,3]triazol-6-yl)-N-(cis-4-(difluoromethoxy)cyclohexyl)-4-methoxy-7H-pyrrolo[2,3-d]pyrimidin-2-amine [Compound 2296]
9 | – | 19.2 | FC(F)O[C@H]1CC[C@H](Nc2ncc3c(-c4ccn5nccc5c4)c[nH]c3n2)CC1 [Compound 3278, N-(trans-4-(Difluoromethoxy)cyclohexyl)-5-(pyrazolo[1,5-a]pyridin-5-yl)-7H-pyrrolo[2,3-d]pyrimidin-2-amine]
10 | – | 29.6 | COc1nc(N[C@H]2CC[C@H](OC(F)F)CC2)nc2[nH]cc(-c3ccc4nccn4c3)c12 [Compound 2245, N-(trans-4-(Difluoromethoxy)cyclohexyl)-5-(imidazo[1,2-a]pyridin-6-yl)-4-methoxy-7H-pyrrolo[2,3-d]pyrimidin-2-amine]
11 | – | 66.8 | CC(C)Cc1ncc2c(-c3ccc4nccn4n3)c[nH]c2n1 [Compound 897, 5-(Imidazo[1,2-b]pyridazin-6-yl)-2-isobutyl-7H-pyrrolo[2,3-d]pyrimidine]
12 | – | 7.5 | O=C(NC1CCOCC1)c1cnn2ccc(-c3c[nH]c4nc(C5CC5)ncc34)cc12 [Compound 1551, 5-(2-Cyclopropyl-7H-pyrrolo[2,3-d]pyrimidin-5-yl)-N-(tetrahydro-2H-pyran-4-yl)pyrazolo[1,5-a]pyridine-3-carboxamide]
13 | – | 1.2 | COc1nc(N[C@H]2CC[C@@H](OC)CC2)nc2[nH]cc(-c3ccn4ncnc4c3)c12 [Compound 3384, 5-([1,2,4]Triazolo[1,5-a]pyridin-7-yl)-4-methoxy-N-(cis-4-methoxycyclohexyl)-7H-pyrrolo[2,3-d]pyrimidin-2-amine]
14 | – | 2.9 | Cn1nnc2ccc(-c3c[nH]c4nc(NCC(C)(C)F)ncc34)cc21 [Compound 822, N-(2-Fluoro-2-methylpropyl)-5-(1-methyl-1H-benzo[d][1,2,3]triazol-6-yl)-7H-pyrrolo[2,3-d]pyrimidin-2-amine]

Further lines, the molecule ahead of its results:

Row | Molecule | EC50 [1] [nM] | EC50 [2] [nM]
15 | COC[C@H](C)Nc1ncc2c(-c3ccc4ncc(F)n4c3)c[nH]c2n1 [Compound 161, (S)-5-(3-Fluoroimidazo[1,2-a]pyridin-6-yl)-N-(1-methoxypropan-2-yl)-7H-pyrrolo[2,3-d]pyrimidin-2-amine] | 361 | 26.5
16 | COc1nc(CC(C)C)nc2[nH]cc(-c3cc(F)c4nccn4c3)c12 [Compound 187, 5-(8-Fluoroimidazo[1,2-a]pyridin-6-yl)-2-isobutyl-4-methoxy-7H-pyrrolo [2,3-d]pyrimidine] | 765 | 20.3
17 | CC(C)(F)CNc1ncc2c(-c3ccc4nccn4c3)c[nH]c2n1 [Compound 112, N-(2-Fluoro-2-methylpropyl)-5-(imidazo[1,2-a]pyridin-6-yl)-7H-pyrrolo[2,3-d]pyrimidin-2-amine] | 113 | 2.8
18 | Cc1nc2ccc(-c3c[nH]c4nc(CC(C)C)ncc34)nc2n1C(C)C [Compound 674, 5-(2-Isobutyl-7H-pyrrolo[2,3-d]pyrimidin-5-yl)-3-isopropyl-2-methyl-3H-imidazo[4,5-b]pyridine] | 72 | 5.1
19 | Cc1nc2ncc(-c3c[nH]c4nc(C5CCC5)ncc34)cc2n1C(C)C [Compound 588, 6-(2-Cyclobutyl-7H-pyrrolo[2,3-d]pyrimidin-5-yl)-1-isopropyl-2-methyl-1H-imidazo[4,5-b]pyridine] | 1470 | 25
20 | c1cn2cc(-c3c[nH]c4nc(C5CC5)ncc34)cnc2n1 [Compound 450, 2-Cyclopropyl-5-(imidazo[1,2-a]pyrimidin-6-yl)-7H-pyrrolo[2,3-d]pyrimidine] | 980 | 16.1
21 | C[C@@H](Nc1ncc2c(-c3ccc4nccn4c3)c[nH]c2n1)C(F)(F)F [Compound 115, (R)-5-(Imidazo[1,2-a]pyridin-6-yl)-N-(1,1,1-trifluoropropan-2-yl)-7H-pyrrolo [2,3-d]pyrimidin-2-amine] | 30 | 3.1
22 | O=C(NCC(F)F)c1cnc2ccc(-c3c[nH]c4nc(C5CC5)ncc34)cn12 [Compound 407, 6-(2-Cyclopropyl-7H-pyrrolo[2,3-d]pyrimidin-5-yl)-N-(2,2-difluoroethyl) imidazo[1,2-a]pyridine-3-carboxamide] | 11 | 1.2
23 | CN1CCN(c2ccc(Nc3ncc4c(-c5cc6cnccc6s5)c[nH]c4n3)cn2)CC1 [Compound 93, N-(6-(4-Methylpiperazin-1-yl)pyridin-3-yl)-5-(thieno[3,2-c]pyridin-2-yl)-7H-pyrrolo[2,3-d]pyrimidin-2-amine] | – | 6.4
24 | c1nc2ccc(-c3c[nH]c4nc(C5CC5)ncc34)cn2n1 [Compound 720, 6-(2-Cyclopropyl-7H-pyrrolo[2,3-d]pyrimidin-5-yl)-[1,2,4]triazolo[1,5-a]pyridine] | – | 200
25 | CN1CCN(c2ccc(CNc3ncc4c(-c5ccc6c(c5)CNC6=O)c[nH]c4n3)cn2)CC1 [Compound 10, 5-(2-(((6-(4-Methylpiperazin-1-yl)pyridin-3-yl)methyl)amino)-7H-pyrrolo [2,3-d]pyrimidin-5-yl)isoindolin-1-one] | – | 96.8
26 | 5-(Imidazo[1,2-a]pyrazin-6-yl)-7H-pyrrolo[2,3-d]pyrimidine [Compound 491] | – | 15.5
27 | c1nc2ccc(-c3c[nH]c4nc(C5CCC5)ncc34)cn2n1 [Compound 721, 6-(2-Cyclobutyl-7H-pyrrolo[2,3-d]pyrimidin-5-yl)-[1,2,4]triazolo[1,5-a]pyridine] | – | 852
